Common to all, as to assay: DSF 100 kinase selectivity screen;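 also: compound tested at 20 µM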
Assay type in all cases: binding

Assay [1] addresses T1, ~100 representative kinases (Homo sapiens, UniProt O75582).
T1 construct: Recombinant protein kinase domains with a concentration of 2 μM
Conditions: Protein RPS6KA5; DSF; average of three replicates. The method in brief: (§1)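 Each kinase domain, at 2 μM, is mixed with 20 μM test compound and SYPRO Orange in Hepes (20 mM, pH 7.5) with 500 mM NaCl. Temperature is then raised at 3°C/min and fluorescence-monitored unfolding yields the melting temperature change, ΔTm in degrees Celsius.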

For assay [2], the target named is T2, ~100 representative kinases (Homo sapiens, UniProt P15056).
T2 construct: Recombinant protein kinase domains with a concentration of 2 μM
T2 sequence (P15056 whole entry, the tested form may be a part): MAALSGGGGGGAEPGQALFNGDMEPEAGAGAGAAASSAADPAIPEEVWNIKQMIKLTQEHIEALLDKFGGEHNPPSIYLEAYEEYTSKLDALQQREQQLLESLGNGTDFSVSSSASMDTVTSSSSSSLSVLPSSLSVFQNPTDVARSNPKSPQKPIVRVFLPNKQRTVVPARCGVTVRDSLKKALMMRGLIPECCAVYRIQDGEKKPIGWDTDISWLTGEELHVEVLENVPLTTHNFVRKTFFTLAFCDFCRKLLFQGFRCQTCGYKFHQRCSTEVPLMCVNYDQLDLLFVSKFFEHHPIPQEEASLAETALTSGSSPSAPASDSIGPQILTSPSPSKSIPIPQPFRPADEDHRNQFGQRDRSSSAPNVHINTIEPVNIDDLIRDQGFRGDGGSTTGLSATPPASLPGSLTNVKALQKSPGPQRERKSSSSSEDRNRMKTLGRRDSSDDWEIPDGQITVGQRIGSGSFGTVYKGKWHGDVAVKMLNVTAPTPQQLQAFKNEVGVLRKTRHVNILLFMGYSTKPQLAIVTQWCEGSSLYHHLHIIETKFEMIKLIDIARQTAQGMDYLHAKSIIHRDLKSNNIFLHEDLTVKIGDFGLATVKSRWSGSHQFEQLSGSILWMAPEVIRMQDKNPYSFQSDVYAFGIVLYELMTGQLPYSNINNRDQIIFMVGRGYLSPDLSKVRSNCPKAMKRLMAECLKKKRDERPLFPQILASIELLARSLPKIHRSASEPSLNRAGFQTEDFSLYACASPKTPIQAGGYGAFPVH
Conditions: Protein BRAF; average of three replicates. Summed up:
as §1

For assay [3], the target named is T3, ~100 representative kinases (Homo sapiens, UniProt P27448).
T3 construct: Recombinant protein kinase domains with a concentration of 2 μM
T3 sequence (P27448 whole entry, the tested form may be a part): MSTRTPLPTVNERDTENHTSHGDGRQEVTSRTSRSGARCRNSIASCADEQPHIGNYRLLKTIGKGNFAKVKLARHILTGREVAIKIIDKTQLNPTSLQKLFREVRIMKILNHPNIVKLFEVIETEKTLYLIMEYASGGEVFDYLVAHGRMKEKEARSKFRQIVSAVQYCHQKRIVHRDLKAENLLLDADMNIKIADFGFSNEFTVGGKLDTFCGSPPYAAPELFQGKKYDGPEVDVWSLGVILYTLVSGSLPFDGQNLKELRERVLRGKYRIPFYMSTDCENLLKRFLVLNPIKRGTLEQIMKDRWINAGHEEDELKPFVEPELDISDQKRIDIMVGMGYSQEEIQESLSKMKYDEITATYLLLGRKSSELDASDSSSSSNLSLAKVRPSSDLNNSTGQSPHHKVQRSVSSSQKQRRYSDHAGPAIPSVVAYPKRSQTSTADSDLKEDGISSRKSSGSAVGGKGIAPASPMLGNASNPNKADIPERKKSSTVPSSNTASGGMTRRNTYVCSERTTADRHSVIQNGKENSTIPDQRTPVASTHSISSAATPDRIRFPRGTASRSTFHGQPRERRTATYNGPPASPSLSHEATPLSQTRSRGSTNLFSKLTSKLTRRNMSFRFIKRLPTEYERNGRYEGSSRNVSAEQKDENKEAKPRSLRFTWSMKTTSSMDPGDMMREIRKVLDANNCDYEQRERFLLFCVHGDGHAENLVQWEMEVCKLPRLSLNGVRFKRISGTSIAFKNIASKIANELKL
Conditions: protein MARK3; average of three replicates. Summed up:
as §1

Assay [4] deals with T4, ~100 representative kinases (Homo sapiens, UniProt P49841).
T4 construct: Recombinant protein kinase domains with a concentration of 2 μM
T4 sequence (P49841 whole entry, the tested form may be a part): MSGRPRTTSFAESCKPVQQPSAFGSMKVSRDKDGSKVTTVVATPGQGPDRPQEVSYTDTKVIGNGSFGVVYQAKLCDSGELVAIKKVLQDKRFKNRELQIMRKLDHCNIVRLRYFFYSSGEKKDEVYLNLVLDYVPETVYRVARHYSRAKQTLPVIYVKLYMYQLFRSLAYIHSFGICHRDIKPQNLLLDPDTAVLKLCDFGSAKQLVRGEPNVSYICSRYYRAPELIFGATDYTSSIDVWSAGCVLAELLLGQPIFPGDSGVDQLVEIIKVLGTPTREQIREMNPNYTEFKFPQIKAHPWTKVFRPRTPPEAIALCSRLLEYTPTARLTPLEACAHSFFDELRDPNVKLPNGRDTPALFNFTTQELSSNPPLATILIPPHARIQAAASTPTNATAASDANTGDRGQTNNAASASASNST
Conditions: protein GSK3B; average of three replicates. The method in brief: as §1

The target of assay [5] is T5, ~100 representative kinases (Homo sapiens, UniProt P68400).
T5 construct: Recombinant protein kinase domains with a concentration of 2 μM
T5 sequence (P68400 whole entry, the tested form may be a part): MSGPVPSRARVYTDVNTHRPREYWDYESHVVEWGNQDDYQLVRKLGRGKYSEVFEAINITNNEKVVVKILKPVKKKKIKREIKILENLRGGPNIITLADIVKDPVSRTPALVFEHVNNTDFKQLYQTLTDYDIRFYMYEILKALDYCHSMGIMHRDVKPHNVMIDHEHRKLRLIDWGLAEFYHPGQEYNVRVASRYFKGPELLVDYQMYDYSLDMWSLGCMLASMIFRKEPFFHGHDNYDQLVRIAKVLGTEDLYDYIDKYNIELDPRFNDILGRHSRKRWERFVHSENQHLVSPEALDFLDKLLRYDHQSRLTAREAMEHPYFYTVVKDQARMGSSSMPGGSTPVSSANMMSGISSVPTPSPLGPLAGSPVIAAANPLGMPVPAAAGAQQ
Conditions: Protein CK2A1; average of three replicates. The method in brief: as §1

Assay [6] has as its target T6, ~100 representative kinases (Homo sapiens, UniProt Q12866).
T6 construct: Recombinant protein kinase domains with a concentration of 2 μM
T6 sequence (Q12866 21-999): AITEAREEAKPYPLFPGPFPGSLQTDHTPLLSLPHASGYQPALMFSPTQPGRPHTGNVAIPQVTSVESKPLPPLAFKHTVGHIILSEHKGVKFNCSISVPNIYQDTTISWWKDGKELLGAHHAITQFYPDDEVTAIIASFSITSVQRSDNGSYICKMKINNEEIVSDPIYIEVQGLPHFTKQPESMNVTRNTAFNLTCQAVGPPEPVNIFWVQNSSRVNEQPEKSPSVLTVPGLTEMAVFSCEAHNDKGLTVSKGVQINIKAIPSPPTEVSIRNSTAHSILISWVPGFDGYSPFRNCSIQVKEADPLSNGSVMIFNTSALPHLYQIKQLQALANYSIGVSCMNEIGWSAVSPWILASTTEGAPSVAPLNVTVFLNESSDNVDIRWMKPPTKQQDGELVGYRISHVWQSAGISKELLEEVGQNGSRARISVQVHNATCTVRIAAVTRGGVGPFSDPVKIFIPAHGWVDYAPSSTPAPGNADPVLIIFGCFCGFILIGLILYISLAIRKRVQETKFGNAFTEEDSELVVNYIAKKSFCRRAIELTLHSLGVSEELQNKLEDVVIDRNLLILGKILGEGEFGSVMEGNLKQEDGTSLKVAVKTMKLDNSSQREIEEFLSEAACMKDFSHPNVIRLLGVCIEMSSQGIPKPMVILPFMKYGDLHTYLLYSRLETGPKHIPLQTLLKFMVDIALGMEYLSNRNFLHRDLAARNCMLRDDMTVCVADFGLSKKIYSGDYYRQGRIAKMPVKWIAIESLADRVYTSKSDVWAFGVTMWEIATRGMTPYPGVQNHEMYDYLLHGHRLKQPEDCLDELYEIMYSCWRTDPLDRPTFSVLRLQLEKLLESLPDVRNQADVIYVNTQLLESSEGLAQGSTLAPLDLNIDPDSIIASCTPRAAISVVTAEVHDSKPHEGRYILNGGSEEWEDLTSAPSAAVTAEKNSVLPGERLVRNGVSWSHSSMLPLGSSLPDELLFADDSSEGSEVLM
The conditions noted are these: protein MERTK; average of three replicates. The method in brief: as §1

Assay [7] addresses T7, ~100 representative kinases (Homo sapiens, UniProt Q16566).
T7 construct: Recombinant protein kinase domains with a concentration of 2 μM
T7 sequence (Q16566 1-473): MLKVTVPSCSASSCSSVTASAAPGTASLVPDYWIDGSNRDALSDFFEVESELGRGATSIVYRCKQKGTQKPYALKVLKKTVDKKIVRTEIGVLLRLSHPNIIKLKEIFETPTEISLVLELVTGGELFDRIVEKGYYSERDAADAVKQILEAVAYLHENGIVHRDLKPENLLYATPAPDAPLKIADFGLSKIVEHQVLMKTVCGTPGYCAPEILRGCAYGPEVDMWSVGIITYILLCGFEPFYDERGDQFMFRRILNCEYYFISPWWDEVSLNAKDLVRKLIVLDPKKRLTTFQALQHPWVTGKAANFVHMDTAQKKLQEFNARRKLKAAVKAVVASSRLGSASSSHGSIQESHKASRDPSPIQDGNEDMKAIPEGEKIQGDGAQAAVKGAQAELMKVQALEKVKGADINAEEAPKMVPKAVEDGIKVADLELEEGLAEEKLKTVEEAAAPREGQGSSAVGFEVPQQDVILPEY
The conditions noted are these: Protein CAMK4; average of three replicates. The method in brief: as §1

Assay [8] has as its target T8, ~100 representative kinases (Homo sapiens, UniProt Q8TDX7).
T8 construct: Recombinant protein kinase domains with a concentration of 2 μM
The conditions noted are these: protein NEK7; average of three replicates. The method in brief:
as §1

Assay [9] concerns the target T9, ~100 representative kinases (Homo sapiens, UniProt Q99986).
T9 construct: Recombinant protein kinase domains with a concentration of 2 μM
T9 sequence (Q99986 1-396): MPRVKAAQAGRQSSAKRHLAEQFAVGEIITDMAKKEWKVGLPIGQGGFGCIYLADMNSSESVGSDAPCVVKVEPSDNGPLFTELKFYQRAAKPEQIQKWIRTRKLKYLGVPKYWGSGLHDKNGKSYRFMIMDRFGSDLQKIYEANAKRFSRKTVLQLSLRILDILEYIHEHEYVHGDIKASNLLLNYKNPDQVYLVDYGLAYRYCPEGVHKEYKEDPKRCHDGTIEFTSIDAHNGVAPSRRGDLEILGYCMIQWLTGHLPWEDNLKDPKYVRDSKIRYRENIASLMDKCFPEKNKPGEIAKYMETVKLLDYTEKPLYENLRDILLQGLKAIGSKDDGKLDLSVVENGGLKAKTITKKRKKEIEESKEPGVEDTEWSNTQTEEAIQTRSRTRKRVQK
The conditions noted are these: Protein VRK1; DSF; average of three replicates. The method in brief:
as §1

Assay [10] addresses T10, ~100 representative kinases (Homo sapiens, UniProt Q9UEW8).
T10 construct: Recombinant protein kinase domains with a concentration of 2 μM
Conditions: Protein STK39; DSF; average of three replicates. Summed up:
as §1

T8 sequence (Q8TDX7 whole entry, the tested form may be a part): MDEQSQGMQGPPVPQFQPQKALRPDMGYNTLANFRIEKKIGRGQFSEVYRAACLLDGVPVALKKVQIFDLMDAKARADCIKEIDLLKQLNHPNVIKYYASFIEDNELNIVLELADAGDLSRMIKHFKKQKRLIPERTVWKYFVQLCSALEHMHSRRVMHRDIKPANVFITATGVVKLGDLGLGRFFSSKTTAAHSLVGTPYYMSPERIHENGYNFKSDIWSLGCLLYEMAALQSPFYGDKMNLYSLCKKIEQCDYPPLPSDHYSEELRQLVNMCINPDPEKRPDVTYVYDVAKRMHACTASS
T1 sequence (O75582 whole entry, the tested form may be a part): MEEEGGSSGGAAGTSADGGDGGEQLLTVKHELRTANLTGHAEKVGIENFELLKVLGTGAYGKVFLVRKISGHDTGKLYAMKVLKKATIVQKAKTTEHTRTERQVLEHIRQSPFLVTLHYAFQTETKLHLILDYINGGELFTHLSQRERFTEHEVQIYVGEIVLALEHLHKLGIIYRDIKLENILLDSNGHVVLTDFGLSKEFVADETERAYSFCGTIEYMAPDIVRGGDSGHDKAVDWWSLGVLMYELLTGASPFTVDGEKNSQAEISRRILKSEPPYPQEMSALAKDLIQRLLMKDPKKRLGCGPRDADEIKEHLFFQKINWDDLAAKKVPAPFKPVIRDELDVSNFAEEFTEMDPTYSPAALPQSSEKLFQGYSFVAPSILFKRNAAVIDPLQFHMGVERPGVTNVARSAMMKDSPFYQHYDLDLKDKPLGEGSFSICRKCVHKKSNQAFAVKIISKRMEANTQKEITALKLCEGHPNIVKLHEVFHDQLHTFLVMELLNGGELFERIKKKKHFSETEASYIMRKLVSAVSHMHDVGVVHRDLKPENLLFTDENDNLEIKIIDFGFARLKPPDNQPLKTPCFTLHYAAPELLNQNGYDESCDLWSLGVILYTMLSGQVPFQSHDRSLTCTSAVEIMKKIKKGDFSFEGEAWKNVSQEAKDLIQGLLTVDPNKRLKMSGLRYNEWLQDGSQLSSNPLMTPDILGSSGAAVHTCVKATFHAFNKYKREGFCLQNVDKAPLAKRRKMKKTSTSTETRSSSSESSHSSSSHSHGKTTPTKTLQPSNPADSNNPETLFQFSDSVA

`O=C(Nc1cccc(-c2c[nH]c3ncnc(N4CCOCC4)c23)c1)C1(C(=O)Nc2ccc(F)cc2F)CC1` [Compound 23]: the dTm in assay [1] is on record as 0.48 K; in assay [2] it was 9.00 K; in [3], 4.65 K; in assay [4] it was 3.90 K; in assay [5], -0.33 K; in assay [6] it was 0.52 K. Besides, the dTm in assay [7] is reported as 0.57 K; in [8], 0.03 K; in [9], 0.51 K; in assay [10] it was 1.14 K.

`Cc1ccc(NC(=O)C2(C(=O)Nc3cccc(-c4c[nH]c5ncnc(N6CCOCC6)c45)c3)CC2)cc1` [Compound 14]: the dTm in [1] was determined as 3.04 K; in [2], 8.39 K; in assay [3], 4.90 K; in assay [4] it was 4.34 K; in assay [5], 1.79 K; in assay [6], 0.92 K. Also, the dTm was 1.05 K in assay [7], -0.37 K in [8], 0.91 K in [9] and 1.16 K in assay [10].

The values above are taken from PMC12136037, “Type II kinase inhibitors that target Parkinson’s disease–associated LRRK2” (Science Advances, 2025).
